Results: publication PMC4650712, “Conversion of cell-survival activity of Akt into apoptotic death of cancer cells by two mutations on the BIM BH3 domain” (Cell Death & Disease, 2015)

Assays:
H1299 = assay: MTT assay, H1299 lung cancer cells; assay type: cell-based, human; details: PTEN-silenced
Procedure: (§1) For intracellular delivery, BH3BIM(I155R/E158S) was fused to the C-terminus of the cell penetration peptide (CPP) derived from HIV Tat (Figure 1). PC3 and HCT116 cells were treated with the CPP-BH3BIM(I155R/E158S) peptide, and the MTT assay was performed. […] We then measured the activity of Akt by examining the phosphorylation state of itself and its substrate GSK3β. […] To elaborate this observation, we examined the effect of the fusion peptide in three different human lung cancer cell lines. […] We then assessed the effect of the Akt activity by ectopically expressing wild-type Akt (Akt-WT), constitutively active Akt (myristoylated Akt; Akt-Myr) or kinase-dead-Akt (Akt-KD). […] The kinase activities of the three Akt versions were confirmed by examining GSK3β phosphorylation (Figures 6f and p-GSK3β). To know whether CPP-BH3BIM(I155R/E158S)-induced cell death might depend on BAX, the HCT116 BAX^+/− and the HCT116 BAX^−/− cell lines were transfected with an expression vector encoding AKT-Myr and the cells were treated with the peptide. […]
(§2) Figure 6 CPP-fused BH3BIM(I155R/E158S) peptide induces death of PC3 cells. (a) Cell viability evaluated by the MTT assay 72 h after treatment of the peptide (0, 10 or 20 μM). […] Cytochrome c (green) was detected by anti-cytochrome c antibody and FITC-conjugated secondary antibody, and the nucleus was stained by DAPI. […]

PARP = PARP cleavage; assay type: cell-based; details: PTEN-transfected; indicator of caspase activation
Procedure: Figure 7 The BH3BIM(I155R/E158S) sequence induces phosphorylation-dependent cell death. (a) Cell viability by the MTT assay. One day after transfection of PC3 cells with an empty vector (EV) or a PTEN-expressing vector (PTEN), cells were treated for 12 h with AuNP-anti-GST DNA aptamer composite coated with the indicated BH3BIM peptide fused to GST (5 μM). (b) Intracellular delivery of the GST-fused peptides. Cells were washed with PBS three times to remove proteins attached to the plasma membrane. M1 stands for BH3BIM (E158S), M2 for BH3BIM (I155R/E158A), and M3 for BH3BIM (I155R/E158S). (c) Cell viability by trypan blue dye exclusion assay. To confirm the effect in (a), cells were incubated with indicated materials for 24 h and stained with trypan blue for 10 min. Percent of live cells were determined by average of 200 cells in three independent experiments. (d) Immunostaining of cytochrome c in PC3 cells. Cells were transfected (EV or PTEN), and incubated with the CPP-BH3BIM(I155R/E158S) peptide (CPP-peptide) for 48 h. […] (e) PTEN blocked the cytochrome c release from mitochondria. Cells were incubated with CPP-BH3BIM(I155R/E158S) for 6 h and subjected to cell fractionation. […] (g) HEK293 cells were treated in the same way as in (a). Viable cells were evaluated 48 h after the treatment by the MTT assay. Error bars indicate the S.D. (n=3) […]

H23 = assay: MTT assay, H23 lung cancer cells; assay type: cell-based, human; details: wild-type K-Ras, normal Akt activity
Procedure: as §1, §2

GSK3β = assay: Western blot of GSK3β phosphorylation (Ser9) in PC3 cells; details: 6 h
PC3 cells [1] = assay: MTT viability assay, PC3 cells, CPP-fused peptide; details: 72 h, 0, 10 or 20 μM, n=3, PTEN-null, elevated Akt activity
A549 = assay: MTT assay, A549 lung cancer cells; assay type: cell-based, human; details: K-Ras mutation
Procedure: as §1, §2

PC3 cells [2] = assay: Cell fractionation: cytochrome c release from mitochondria; assay type: cell-based; details: 6 h
Procedure: Figure 7 The BH3BIM(I155R/E158S) sequence induces phosphorylation-dependent cell death. (a) Cell viability by the MTT assay. One day after transfection of PC3 cells with an empty vector (EV) or a PTEN-expressing vector (PTEN), cells were treated for 12 h with AuNP-anti-GST DNA aptamer composite coated with the indicated BH3BIM peptide fused to GST (5 μM). (b) Intracellular delivery of the GST-fused peptides. Cells were washed with PBS three times to remove proteins attached to the plasma membrane. M1 stands for BH3BIM (E158S), M2 for BH3BIM (I155R/E158A), and M3 for BH3BIM (I155R/E158S). (c) Cell viability by trypan blue dye exclusion assay. To confirm the effect in (a), cells were incubated with indicated materials for 24 h and stained with trypan blue for 10 min. Percent of live cells were determined by average of 200 cells in three independent experiments. (d) Immunostaining of cytochrome c in PC3 cells. Cells were transfected (EV or PTEN), and incubated with the CPP-BH3BIM(I155R/E158S) peptide (CPP-peptide) for 48 h. […] Cells were incubated with CPP-BH3BIM(I155R/E158S) for 6 h and subjected to cell fractionation. […] (g) HEK293 cells were treated in the same way as in (a). Viable cells were evaluated 48 h after the treatment by the MTT assay. Error bars indicate the S.D. (n=3) […]

HEK293 cells = assay: MTT assay, HEK293 cells; assay type: cell-based; details: AuNP-protein or CPP-peptide
Procedure: Figure 7 The BH3BIM(I155R/E158S) sequence induces phosphorylation-dependent cell death. (a) Cell viability by the MTT assay. One day after transfection of PC3 cells with an empty vector (EV) or a PTEN-expressing vector (PTEN), cells were treated for 12 h with AuNP-anti-GST DNA aptamer composite coated with the indicated BH3BIM peptide fused to GST (5 μM). (b) Intracellular delivery of the GST-fused peptides. Cells were washed with PBS three times to remove proteins attached to the plasma membrane. M1 stands for BH3BIM (E158S), M2 for BH3BIM (I155R/E158A), and M3 for BH3BIM (I155R/E158S). (c) Cell viability by trypan blue dye exclusion assay. To confirm the effect in (a), cells were incubated with indicated materials for 24 h and stained with trypan blue for 10 min. Percent of live cells were determined by average of 200 cells in three independent experiments. (d) Immunostaining of cytochrome c in PC3 cells. […] Viable cells were evaluated 48 h after the treatment by the MTT assay. […]
PC3 and HEK293 cells were incubated with the GST-BH3BIM(I155R/E158S) protein conjugated to AuNP-anti-GST DNA aptamer composite[37] after transfection with a PTEN expression vector (pCMV Flag WT-PTEN; addgene plasmid #22231). […] After removing excess solution and washing with PBS, the precipitated materials were dissolved in […] of dimethyl sulfoxide and quantified by measuring the absorbance at 540 nm. […]

HCT116 cells [3] = assay: Immunofluorescence of cytochrome c, HCT116 cells; assay type: cell-based, human; details: 20 μM
Procedure: as §1, with “p-GSK3β).” for “p-GSK3β). To know whether CPP-BH3BIM(I155R/E158S)-induced cell death might depend on BAX, the HCT116 BAX^+/− and the HCT116 BAX^−/− cell lines were transfected with an expression vector encoding AKT-Myr and the cells were treated with the peptide.”
as §2
Cells were seeded on a cover glass and incubated with the CCP-fused BH3BIM(I155R/E158S) peptide. […] The immunofluorescence signal was detected by fluorescence microscopy (Zeiss, Oberkochen, Germany).

PC3 cells [4] = assay: Immunofluorescence of cytochrome c, PC3 cells; assay type: cell-based, human
Procedure: (§3) For intracellular delivery, BH3BIM(I155R/E158S) was fused to the C-terminus of the cell penetration peptide (CPP) derived from HIV Tat (Figure 1). PC3 and HCT116 cells were treated with the CPP-BH3BIM(I155R/E158S) peptide, and the MTT assay was performed. […] We then measured the activity of Akt by examining the phosphorylation state of itself and its substrate GSK3β. […] To elaborate this observation, we examined the effect of the fusion peptide in three different human lung cancer cell lines. […] We then assessed the effect of the Akt activity by ectopically expressing wild-type Akt (Akt-WT), constitutively active Akt (myristoylated Akt; Akt-Myr) or kinase-dead-Akt (Akt-KD). […] The kinase activities of the three Akt versions were confirmed by examining GSK3β phosphorylation (Figures 6f and p-GSK3β). To know whether CPP-BH3BIM(I155R/E158S)-induced cell death might depend on BAX, the HCT116 BAX^+/− and the HCT116 BAX^−/− cell lines were transfected with an expression vector encoding AKT-Myr and the cells were treated with the peptide. […] The survival of the BAX^−/− cells despite the CPP-BH3BIM(I155R/E158S) treatment could be explained by an observation that the designed peptide only weakly binds to MCL-1 (not shown), which is a major inhibitor of BAK.[35] Presumably, both MCL-1 and BAK are expressed in these cells.[36]
Figure 6 CPP-fused BH3BIM(I155R/E158S) peptide induces death of PC3 cells. (a) Cell viability evaluated by the MTT assay 72 h after treatment of the peptide (0, 10 or 20 μM). N.S indicates non-significance. Error bars indicate S.D. (n=3). (b) The immunofluorescence images of PC3 and HCT116 cells treated with 20-μM CPP-BH3BIM(I155R/E158S). Cytochrome c (green) was detected by anti-cytochrome c antibody and FITC-conjugated secondary antibody, and the nucleus was stained by DAPI. The large boxes are the enlargement of the small boxes, highlighting the cytochrome c staining. (c) Western blot (WB) analysis to examine the effect of CPP-BH3BIM(I155R/E158S) on the phosphorylation of Akt (at Ser473) and GSK3β (at Ser9). PC3 cells were incubated with the peptide for 6 h at the indicated concentration. t-Akt and t-GSK3β stand for total Akt and GSK3β, respectively. (d) MTT assay to examine the cytotoxic effect of CPP-BH3BIM(I155R/E158S) on lung cancer cell lines. […] (e) Promotion of CPP-BH3BIM(I155R/E158S)-induced death of HCT116 cells by Akt. Cells were transfected with the indicated vectors for 24 h and incubated with the peptide for 72 h. Cell death was promoted by Akt-WT and Akt-Myr, but not by Akt-KD. (f) Phosphorylation of GSK3β (p-GSK3β) by Akt-WT and Akt-Myr, but not by Akt-KD. […]
Figure 7 The BH3BIM(I155R/E158S) sequence induces phosphorylation-dependent cell death. […] Percent of live cells were determined by average of 200 cells in three independent experiments. […]

HCT116 cells [5] = assay: Death of HCT116 cells with ectopic Akt; assay type: cell-based; details: peptide 72 h
Procedure: as §3
Figure 6 CPP-fused BH3BIM(I155R/E158S) peptide induces death of PC3 cells. (a) Cell viability evaluated by the MTT assay 72 h after treatment of the peptide (0, 10 or 20 μM). N.S indicates non-significance. Error bars indicate S.D. (n=3). (b) The immunofluorescence images of PC3 and HCT116 cells treated with 20-μM CPP-BH3BIM(I155R/E158S). Cytochrome c (green) was detected by anti-cytochrome c antibody and FITC-conjugated secondary antibody, and the nucleus was stained by DAPI. The large boxes are the enlargement of the small boxes, highlighting the cytochrome c staining. (c) Western blot (WB) analysis to examine the effect of CPP-BH3BIM(I155R/E158S) on the phosphorylation of Akt (at Ser473) and GSK3β (at Ser9). […]

Akt = assay: Western blot of Akt phosphorylation (Ser473) in PC3 cells; assay type: cell-based; details: 6 h
Procedure: as §1, §2

YGRRARRRARREIWIAQELRRRGDSFNAYYAR [CPP-BH3BIM(I155R/E158S), BH3BIM(I155R/E158S) fused to the C-terminus of the cell penetration peptide (CPP) derived from HIV Tat]
sensitivity to the peptide (H1299): exhibited sensitivity to the peptide
PARP cleavage with PTEN (PARP): PTEN also blocked PARP cleavage
response to the peptide (H23): did not respond to this peptide
phosphorylation of GSK3β (Ser9) (GSK3β; PC3 cells, western blot): reduced the phosphorylation of GSK3β
p-S9-GSK3β (GSK3β; PTEN experiment (Figure 7e)): Reduction of p-S9-GSK3β
cytotoxic activity (PC3 cells [1]): strong cytotoxic activity
response to the peptide (A549): moderate response
cytoplasmic cytochrome c (PC3 cells [2]): Increase of cytoplasmic cytochrome c
increase of cytoplasmic cytochrome c with PTEN expression (PC3 cells [2]; PTEN-transfected): obviously blocked by PTEN expression
viability of HEK293 cells (Supplementary Figure S6) (HEK293 cells): slightly increased cell viability without a statistical significance
cytochrome c distribution (HCT116 cells [3]): retained the puncta staining pattern
apoptotic cell death (PC3 cells [4]; 20 μM, immunofluorescence): underwent apoptotic cell death
cytochrome c distribution (PC3 cells [4]; 20 μM, immunofluorescence, untransfected PC3): diffused in the cytoplasm and gradually accumulated in the nucleus
cytochrome c staining pattern (PC3 cells [4]; EV-transfected PC3, 48 h): diffused nuclear pattern
cytochrome c staining pattern (PC3 cells [4]; PTEN-expressing PC3, 48 h): Cytoplasmic puncta staining pattern
promotion of peptide-induced cell death (HCT116 cells [5]; Akt-KD transfected 24 h): did not show an additive effect
promotion of peptide-induced cell death (HCT116 cells [5]; Akt-Myr transfected 24 h): promoted death of HCT116 cells
promotion of peptide-induced cell death (HCT116 cells [5]; Akt-WT transfected 24 h): promoted death of HCT116 cells
phosphorylation of Akt (Ser473) (Akt): not Akt itself
